US20070196478A1, “ANTIVIRAL COMPOSITIONS” (priority 1999, published 2007)

Experiment: thermal stability of the antiviral compound after melt extrusion (HPLC)
Format: physicochemical
Details: melt extrudate with HPMC 2910 5 mPa·s, 70° C. to […] C.
Description: The melt extrudate was milled and fractions with particle size below 150 μm (condition I in point 6) and between 500 and 850 μm (condition II in point 6) were collected.

- degradation of the antiviral compound after melt extrusion: No degradation
Structure (SMILES): Cc1cc(C)c(Nc2ccnc(Nc3ccc(C#N)cc3)n2)c(C)c1 [Compound 17 of formula (I-A), 4-[[4-[(2,4,6-trimethylphenyl)amino]-2-pyrimidinyl]amino]benzonitrile]
